Earlier results in US20240156726A1, “MULTI-LAYER ORAL THIN FILM” (LTS LOHMANN THERAPIE-SYSTEME AG, priority 2021, published 2024).

Settings: compared with (R)-ketamine

Compound: CNC1(c2ccccc2Cl)CCCCC1=O (racemic) [(S)-ketamine, (S)-(±)-2-(2-chlorophenyl)-2-(methylamino)cyclohexan-1-one]
- analgesic and anaesthetic potency relative to the (R) form: approximately three times higher
